Tested on: mice hippocampi
Assay: Hippocampal Casp6 substrates, synaptic and glial markers after treatment (western blot, immunohistochemistry)
Assay type: in vivo, mouse
Text: Protein extracts from HCT116 cells and human primary neurons were subjected to western blotting analyses. The 10630 (1:10 000) and GN60622 (1:10 000) neoepitope antibodies against the p20 subunit of active Casp6 (Casp6p20) and α-tubulin cleaved by Casp6 (TubΔCasp6) were generated previously in our laboratory. The β-actin clone AC-15 (1:5 000, Sigma-Aldrich, Oakville, ON, CA), Casp6 (1:1 000), Synapsin (1:5 000), full-length α-tubulin (1:1 000, Cell Signalling Technology Inc., Danvers, MA, USA), GFAP (1:3 000, Dako, Burlington, ON, CA), synaptophysin (1:5 000, Sigma, Oakville, ON, CA), and PSD95 clone K28143 (1:5 000, UC Davis/NIH NeuroMab Facility) were purchased. All antibodies were diluted in 5% non-fat dry milk. Secondary anti-mouse (1:5 000, GE Healthcare Life Sciences, Baie D’Urfe, QC, CA) and anti-rabbit antibodies (1:5 000, Dako, Burlington, ON, CA) conjugated to horseradish peroxidase were used to detect immunoreactive proteins using ECL prime western blotting detection reagent (GE Healthcare Life Sciences, Baie D’Urfe, QC, CA) and Kodak BioMax MR film (Kodak, Rochester, NY, USA). Secondary anti-mouse conjugated to alkaline phosphatase (Jackson Immunoresearch Laboratories Inc., West Grove, PA) was developed with nitro-blue tetrazolium (Thermo Fisher Scientific, Waltham, MA, USA) and 5-bromo-4-chloro-3-indolylphosphate (Thermo Fisher Scientific, Waltham, MA, USA) for chromogenic detection of proteins. The western blots were scanned with an HP scanner and the images were not manipulated except to adjust the brightness/contrast and this was done simultaneously to the entire blot. Quantification was performed with the ImageJ software (NIH, Bethesda, MD, USA).
Only males were used and littermates from each genotype (wild type (WT)/WT, WT/Cre, & knock-in (KI/)Cre) were tested together. The experimenter was blind to genotype and treatment groups. Mice were administered 20 mg/kg NWL-117 or physiological saline (0.9% NaCl) by intraperitoneal injections two times 48 h apart. […] Blood brain barrier permeability of NWL-117 caspase inhibitor: Briefly, 18–22 month old Casp6 mice were anesthetised with isoflurane, warmed with a heating blanket, and their physiological vitals (heart rate, body temperature, and respiration) monitored. The skin over the mouse’s neck was shaved, xylocaine applied, and an incision was made along the midline. Under a surgical microscope, the right carotid artery was gently separated from surrounding tissue. Two suture threads were placed at the proximal and distal ends of the carotid, and a small incision was made along the carotid wall. A micro-catheter (attached to a 1 ml syringe controlled by a micropump) was inserted and pushed to the entrance of the internal carotid artery. The catheter was secured in place using suture thread. NWL-117 (20 mg/kg) was infused via the micro-catheter using a pump set at 50 μL/min (total volume between 64 μL and 130 μL). After 5 min, blood was collected by intra-cardiac puncture, the mouse was perfused through the heart with ice cold saline for 2–3 min. The brain was removed and hippocampi were dissected and frozen on dry ice and stored. Samples were sent to the Biopharmacy platform at the University of Montreal (Quebec, Canada) for liquid chromatography and tandem mass spectrometry analysis. The integrity of the blood-brain barrier was confirmed by injecting 3% Evan’s blue solution in 20 month old Casp6 mice. […]

CCC(C)[C@H](NC(=O)[C@H](CCC(=O)O)NC(=O)[C@@H](NC(=O)OCc1ccccc1)C(C)C)C(=O)N[C@H](/C=C/S(C)(=O)=O)CC(=O)O (some centres unmarked) [NWL-117]
Synapsin, synaptophysin and PSD95 hippocampal protein levels (20 mg/kg i.p.): unchanged | TubΔCasp6 immunostaining, CA1, KI/Cre mice (20 mg/kg i.p.): increased non-significantly | TubΔCasp6 immunostaining, CA1, control mice (20 mg/kg i.p.): non-significantly decreased TubΔCasp6 levels threefold | GFAP levels (KI/Cre mice hippocampal extracts): did not change | p97 cleaved by Casp6 (Δp97) (KI/Cre mice, versus saline): not different

— paper PMC5329948, “Caspase vinyl sulfone small molecule inhibitors prevent axonal degeneration in human neurons and reverse cognitive impairment in Caspase-6-overexpressing mice” (Molecular Neurodegeneration, 2017)
